Laboratory results taken from patent EP3578559B1, “DYE FOR FLUORESCENT STAINING OF STRATUM CORNEUM, MANNER OF ITS SYNTHESIS AND APPLICATION IN MICROSCOPY, INCLUDING IDENTIFICATION OF ROUTES OF SUBSTANCES PENETRATION TO THE SKIN AND ASSESSMENT OF STRUCTURAL DISORDERS OF THIS LAYER” (Gdanski Uniwersytet Medyczny, priority 2018, dated 2019).
Entries after “also recorded” stand apart in the source; their conditions may differ. Read-outs that look alike come from different tables or passages of the source.

Legend:
[1] = commercial dye; cited from earlier work
[2] = test system: stratum corneum; assay: Fluorescent microscopy staining of stratum corneum of human skin ex vivo
Procedure: To obtain microscopic images of stratum corneum in a fluorescent microscope (Nikon Eclipse 50, Japan; the mercury lamp; the filter for wavelength: 330-380 nm; software for data acquisition NIS Elements AR 3.2.) Standard methodology was applied. A fragment of human skin ex vivo (1 cm x 1 cm) was subject to heat separation procedure (temperature 60 °C; 30 seconds) in order to separate epidermis (including stratum corneum) from the dermis. Fragments of the epidermis were placed on a microscopic glass, fluorescent dyes were applied and then incubated in thermostat for 10 minutes at 37 °C. After this time, the excess of dyes was removed by the use of laboratory absorption blotting paper and images of microscopic magnification were recorded in 10 x magnification of the lens, using the exposure time of 15-600 ms.

[3] = Fluorescence optical properties of the dye (Stokes shift, absorption/emission); assay type: physicochemical
[4] = physchem
[5] = Octanol/water partition coefficient (logP), experimentally assigned; conditions: for octanol/water division ratio: ratio of concentrations of the dye in octanol/water
[6] = post application of water / hydrophilic compounds, 10x

In the case of `CCN(CC)c1ccc2c(-c3ccc(S(=O)(=O)O)cc3S(=O)(=O)[O-])c3ccc(=[N+](CC)CC)cc-3oc2c1` [SRB, Sulforhodamines B], the characteristic absorption [1] is listed as 565 nm, the characteristic emission [1] is listed as 590 nm and the staining of corneocytes ([2]; 10x) is listed as “noticeably stains corneocytes”. The staining of canyons ([2]; dye alone (Fig. 11), 10x) was “does not dye the canyons”.
For `CC[N+]1(CC)CN2C(=N1)C(C(=O)ON1C(=O)CCC1=O)=Cc1ccc(C)cc12.[Cl-]` [SAFQ8MeAKT, 4-((2,5-dioxopyrrolidin-1-yloxy)carbonyl)-2,2-diethyl-8-methyl-1,2-dihydro-[1,2,4]triazolo[4,3-a]quinolin-2-ium chloride], the staining of corneocytes ([2]; 10x) was “staining of the inside of corneocytes”, the staining of canyons [2, 6] was “canyons are stained” and the Stokes shift [3] was 95 nm. For the same compound, the characteristic absorption [3] was 365 nm, the characteristic emission [3] was 460 nm and the logP [4] was -0.43. For the same compound, the octanol/water division ratio [5] was 0,37 and the “greater lipophilicity than P4 dye” value ([5]; relative to P4 dye) was “approx. 40 times”.
For `CC[N+]1(CC)CN2C(=N1)C(C(=O)[O-])=Cc1ccccc12` [P4], the “characterization of hydrophilicity/lipophilicity with regard to diffusion to stratum corneum” value ([2]; on the basis of the conducted research) was “too hydrophilic”, the “staining of the lipids inside the lipid matrix or corneocytes proteins” value ([2]; stratum corneum structures) was “lack of staining” and the logP [4] was -1.9. The octanol/water division ratio [5] was 0,01.
In the case of `CCCCCCOC(=O)c1ccccc1-c1c2ccc(=[N+](CC)CC)cc-2oc2cc(N(CC)CC)ccc12` [RBHE, Rhodamine hexylester], the “microscope image quality of stained structures” value ([2]; after application of siloxane with a cyclic structure, compared with SAFQ8MeAKT, 10x) is reported as “not as explicit”, the staining of canyons ([2]; lipophilic compounds (siloxane D4), 10x) is reported as “does not stain canyons so vividly” and the staining of canyons [2, 6] is reported as “canyons are not visible; also recorded: does not dye canyons”.
